Assay [1] relates to acute lymphoblastic leukemia cells CCRF-CEM (K-RasG12D). The experiment in a line: Cell growth inhibition, suspension cells CCRF-CEM. As to conditions: Homo sapiens, 3.2 μM (***), 72 hours, read-out: CCRF-CEM (KRasG12D) % inhibition at 3.2 μM (***). The assay is classed as cell-based. The protocol:
(§1) The cell growth inhibitory activity of the compound of the present invention on human culture cells having active-type mutation in Ras was evaluated by the below-mentioned method using suspension cancer cells {acute lymphoblastic leukemia cells CCRF-CEM (K-RasG12D), promyelocytic leukemia cells HL60 (N-RasQ61L), acute lymphoblastic leukemia cells MOLT4 (N-RasG12C), and small cell lung cancer cells SHP77 (K-RasG12V)} and adherent cancer cells {large bowel cancer cells SW480 (K-RasG12V) and large bowel cancer cell SW620 (K-RasG12V)}.
(§2) (Case of suspension cells) The cells suspended in a medium containing 0.5% (v/v) fetal bovine serum (FBS) and each compound solution (final DMSO concentration: 1%) were seeded on a 96-well plate (2 to 4×10^4 cells/well), and the resulting mixture was then cultured at 37° C. in the presence of 5% CO2 for 72 hours.
(§3) Thereafter, the number of viable cells was measured using Cell Counting Reagent (Nacalai Tesque) in accordance with the manufacturer's instructions. Inhibition by the test compound was determined according to the following equation: […]

Assay [2] concerns the target GTPγS-bound human HRasG12V / human c-Raf-1 Ras binding domain (RBD) (Homo sapiens (Human), UniProt P01112, G12V). The experiment in a line: Ras-Raf binding inhibition ELISA. As to conditions: for IC50: anti-HRas antibody C-20, read-out: ELISA IC50 (μM): 1st Ab_C-20. In short, it runs like this: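 GST-c-Raf-1 RBD (aa 50-131) immobilized on glutathione plates, then GTPγS-loaded full-length HRasG12V added with compound (final 10% DMSO), 1 h at 30 °C, pH 7.4 Tris buffer. Bound Ras detected by anti-HRas antibody (C-20 or 259) and HRP secondary, TMB read at OD450; IC50 from inhibition.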
Background: An ELISA detects its analyte on a solid surface through an enzyme-linked reagent.

Assay [3] concerns large bowel cancer cell SW620 (K-RasG12V). The experiment in a line: Cell growth inhibition, adherent cells SW620. The assay is classed as cell-based. The note with it: Homo sapiens, SW-620, 72 hours; for inhibition at 3.2 µM: read-out: SW620 (KRasG12V) % inhibition at 3.2 μM (***). On the procedure: as §1
(Case of adherent cells) The cells suspended in a medium containing 10% FBS (1 to 2×10^4 cells/well) were seeded on a 96-well plate, and were then cultured at 37° C. in the presence of […]. Thereafter, the medium was exchanged with a medium containing […], to which each compound solution (final DMSO concentration: […]) had been added, and the cells were then cultured at 37° C. in the presence of […] for 72 hours.
as §3

Assay [4] concerns promyelocytic leukemia cells HL60 (N-RasQ61L). Briefly: Cell growth inhibition, suspension cells HL60. The assay is classed as cell-based. As to conditions: Homo sapiens, HL-60; 3.2 μM (****), 72 hours; read-out: HL-60 (NRasQ61L) % inhibition at 3.2 μM (****). In short, it runs like this: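 Suspension cells, 2 to 4×10^4 per well, cultured with compound in medium with 0.5% FBS (1% DMSO final) for 72 h at 37° C, 5% CO2. Viable cells counted with Cell Counting Reagent; inhibition calculated relative to controls.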

For assay [5], the system named is small cell lung cancer cells SHP77 (K-RasG12V). The experiment in a line: Cell growth inhibition, suspension cells SHP77. The assay is classed as cell-based. As to conditions: Homo sapiens, 72 hours; for inhibition at 3.2 µM: read-out: SHP77 (KRasG12V) % inhibition at 3.2 μM (**). The protocol: as §1, §2, §3

From US20250091994A1, “RAS/RAF BINDING INHIBITOR COMPOUND” (NATIONAL UNIVERSITY CORPORATION KOBE UNIVERSITY, priority 2021, published 2025) come the findings set out here.

Sequence of GTPγS-bound human HRasG12V / human c-Raf-1 Ras binding domain (RBD) (P01112 whole entry G12V, the tested form may be a part): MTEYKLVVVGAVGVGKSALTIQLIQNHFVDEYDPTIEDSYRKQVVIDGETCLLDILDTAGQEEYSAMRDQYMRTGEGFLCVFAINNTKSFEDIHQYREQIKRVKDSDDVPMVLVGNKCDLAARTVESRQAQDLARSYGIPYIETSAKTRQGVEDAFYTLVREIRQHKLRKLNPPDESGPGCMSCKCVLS

`CC(=O)N1/C(=C\c2nc3ccc(-c4nnn[nH]4)cc3cc2-c2cccc3ccccc23)C(=O)c2ccccc21` [Example 214, (Z)-1-acetyl-2-((3-(naphthalen-1-yl)-6-(1H-tetrazol-5-yl)quinolin-2-yl)methylene)-indolin-3-one]: the inhibition at 3.2 µM turned out to be 96% in assay [1], 92.2% in assay [3] and 36.7% in assay [4]. In assay [2], the IC50 was determined as 28.9 µM.
As to `CC(=O)N1/C(=C\c2nc3ccc(C(=O)O)cc3cc2-c2cccc3ccccc23)C(=O)c2ccccc21` [Example 202, (Z)-2-((1-acetyl-3-oxoindolin-2-ylidene)methyl)-3-(naphthalen-1-yl)-quinoline-6-carboxylic acid], the figures for the inhibition at 3.2 µM in assay [5] and in assay [3] were 63.6% and 96.6%, respectively.
`CC(=O)N1/C(=C\c2cc(-c3cccc4cccnc34)c3cc(CNC4CCOCC4)ccc3n2)C(=O)c2ccccc21` [Example 167, (Z)-1-acetyl-2-((6-(((tetrahydro-2H-pyran-4-yl)-amino)methyl)-[4,8′-biquinolin]-2-yl)methylene)-indolin-3-one]: in assay [2], 1 µM produced 62.2% inhibition. Moreover, in assay [2], the IC50 turned out to be 0.8 µM. The results for the inhibition at 3.2 µM in assay [5] and in assay [3] were 65.8% and 64.4%, respectively.
The matching figures for `CC(=O)N1/C(=C\c2cc(-c3cccc(-c4ccccc4)c3)c3cc(C(=O)N4CCN(C5COC5)CC4)ccc3n2)C(=O)c2ccccc21` [Example 158, (Z)-2-((4-([1,1′-biphenyl]-3-yl)-6-(4-(oxetan-3-yl)-piperazine-1-carbonyl)quinolin-2-yl)methylene)-1-acetylindolin-3-one]: 59.2%, 0.8 µM, 72.4% and 58.5%.
As to `CC(=O)N1/C(=C\c2cc(-c3cnccn3)c3cc(C(=O)N4CCOCC4)ccc3n2)C(=O)c2ccccc21` [Example 194, (Z)-1-acetyl-2-((6-(morpholine-4-carbonyl)-4-(pyrazin-2-yl)-quinolin-2-yl)-methylene)indolin-3-one], in assay [2], the inhibition at 1 µM came to 55.4% and the IC50 worked out at 0.9 µM. For the same compound, the inhibition at 3.2 µM in assay [5] was 58.3%.
Take `CC(=O)N1/C(=C\c2cc(-c3cccc(-c4ccccc4)c3)c3cc(C(=O)O)ccc3n2)C(=O)c2ccccc21` [Example 152, (Z)-4-([1,1′-biphenyl]-3-yl)-2-((1-acetyl-3-oxo-indolin-2-ylidene)-methyl)quinoline-6-carboxylic acid]: in assay [2], at 1 µM the inhibition was 53.5% and the IC50 amounted to 0.9 µM. The inhibition at 3.2 µM in assay [5] turned out to be 81.1%. Besides, in assay [3], the inhibition at 3.2 µM came out at 97.2%.
On to `CC(=O)N1/C(=C\c2nc3ccc(C(=O)N4CCOCC4)cc3cc2-c2cnn(C)c2)C(=O)c2ccccc21` [Example 198, (Z)-1-acetyl-2-((3-(1-methyl-1H-pyrazol-4-yl)-6-(morpholine-4-carbonyl)quinolin-2-yl)methylene)-indolin-3-one], for which the values for the inhibition at 3.2 µM in assay [1], in assay [3] and in assay [4] were 68.7%, 30.4% and 75.1%, respectively.
Turning to `CC(=O)N1/C(=C\c2cc(-c3cccc4ccccc34)c3cc(C(=O)O)ccc3n2)C(=O)c2ccccc21` [Example 153, (Z)-2-((1-acetyl-3-oxoindolin-2-ylidene)methyl)-4-(naphthalen-1-yl)quinoline-6-carboxylic acid], in assay [2], 1 µM produced 63.1% inhibition and the half-maximal inhibitory concentration (IC50) is 1.1 µM. Also, the inhibition at 3.2 µM in assay [5] worked out at 65.7%. Further, the inhibition at 3.2 µM in assay [3] was 96.1%.
Take `CC(=O)N1/C(=C\c2cc(-c3ccc4ccccc4c3)c3cc(C(=O)O)ccc3n2)C(=O)c2ccccc21` [Example 157, (Z)-2-((1-acetyl-3-oxoindolin-2-ylidene)methyl)-4-(naphthalen-2-yl)quinoline-6-carboxylic acid]: in assay [2], the inhibition at 1 µM is 61.4% and the IC50 amounted to 0.6 µM. The inhibition at 3.2 µM in assay [5] is 49.2%. The inhibition at 3.2 µM in assay [3] stood at 97.5%.
With `CC(=O)N1/C(=C\c2cc(-c3cccc4ccccc34)c3cc(C(=O)N4CCN(C5COC5)CC4)ccc3n2)C(=O)c2ccccc21` [Example 159, (Z)-1-acetyl-2-((4-(naphthalen-1-yl)-6-(4-(oxetan-3-yl)piperazine-1-carbonyl)quinolin-2-yl)methylene)-indolin-3-one], the inhibition at 1 µM in assay [2] was found to be 72.7%. In addition, the IC50 in assay [2] worked out at 0.3 µM. In addition, the figures for the inhibition at 3.2 µM in assay [5] and in assay [3] were 52.6% and 96.6%, respectively.
The matching figures for `CC(=O)N1/C(=C\c2cc(-c3ccc4ccccc4c3)c3cc(C(=O)N4CCN(C5COC5)CC4)ccc3n2)C(=O)c2ccccc21` [Example 163, (Z)-1-acetyl-2-((4-(naphthalen-2-yl)-6-(4-(oxetan-3-yl)piperazine-1-carbonyl)quinolin-2-yl)methylene)-indolin-3-one]: 63.8%, 0.7 µM, 72.3% and 34.7%.
`CC(=O)N1/C(=C\c2cc(-c3ccc4ccccc4c3)c3cc(CNC4CCOCC4)ccc3n2)C(=O)c2ccccc21` [Example 169, (Z)-1-acetyl-2-((4-(naphthalen-2-yl)-6-(((tetrahydro-2H-pyran-4-yl)-amino)methyl)-quinolin-2-yl)-methylene)indolin-3-one]: in assay [2], the inhibition at 1 µM came out at 52.4% and the IC50 turned out to be 0.9 µM. Further, the inhibition at 3.2 µM in assay [5] turned out to be 51.5%. Moreover, the inhibition at 3.2 µM in assay [3] stood at 35.1%.
With `CC(=O)N1CCc2cc(-c3cc(/C=C4/C(=O)c5ccccc5N4C(C)=O)nc4ccccc34)ccc2C1` [Example 187, (Z)-1-acetyl-2-((4-(2-acetyl-1,2,3,4-tetra-hydroisoquinolin-6-yl)-quinolin-2-yl)methylene)-indolin-3-one], the inhibition at 1 µM is 66.7% in assay [2]; 66.8% in assay [5] (1 μM, read-out: SHP77 (KRasG12V) % inhibition at 1 μM); 39.3% in assay [3] (1 μM, read-out: SW620 (KRasG12V) % inhibition at 1 μM).
Turning to `CC(=O)N1/C(=C\c2ccc3cc(C(=O)N4CCOCC4)cc(-c4cccc5ccccc45)c3n2)C(=O)c2ccccc21` [Example 197, 1-acetyl-2-((6-(morpholine-4-carbonyl)-8-(naphthalen-1-yl)-quinolin-2-yl)-methylene)indolin-3-one], the inhibition at 10 µM in assay [2] came to 35.3%. Also, the figures for the inhibition at 3.2 µM in assay [5] and in assay [3] were 65.7% and 35.5%, respectively.
With `CC(=O)N1/C(=C\c2cc(-c3nccn3C)c3cc(C(=O)N4CCOCC4)ccc3n2)C(=O)c2ccccc21` [Example 180, (Z)-1-acetyl-2-((4-(1-methyl-1H-imidazol-2-yl)-6-(morpholine-4-carbonyl)quinolin-2-yl)methylene)-indolin-3-one], in assay [2], the inhibition at 1 µM was 43.7% and the IC50 was determined as 1.5 µM. Further, in assay [5], the inhibition at 3.2 µM is 69.2%.
The matching figures for `CC(=O)N1/C(=C\c2cc(-c3ccc(-c4ccccc4)cc3)c3cc(CNC4CCOCC4)ccc3n2)C(=O)c2ccccc21` [Example 168, (Z)-2-((4-([1,1′-biphenyl]-4-yl)-6-(((tetrahydro-2H-pyran-4-yl)amino)-methyl)quinolin-2-yl)methylene)-1-acetylindolin-3-one]: 48.4%, 1.3 µM and 53.1%.
`CC(=O)N1/C(=C\c2cc(-c3cccc(-c4ccccc4)c3)c3cc(CNC4CCOCC4)ccc3n2)C(=O)c2ccccc21` [Example 164, (Z)-2-((4-([1,1′-biphenyl]-3-yl)-6-(((tetrahydro-2H-pyran-4-yl)amino)-methyl)quinolin-2-yl)methylene)-1-acetylindolin-3-one]: in assay [2], testing at 1 µM gave an inhibition of 48.7% and the concentration for half-maximal inhibition (IC50) is 1.2 µM. The inhibition at 3.2 µM in assay [5] came to 43.5%.

One may read the inhibition as the percentage by which the read-out fell short of the control. The term IC50 denotes the concentration that gives 50% inhibition.
